According to patent US20130252924A1, “Compounds and Methods for Treating Pain” (AKRON MOLECULES GMBH, priority 2010, published 2013):
Where a name gives a salt, the structure may show the parent alone.

Legend:
human PDE4D = biological target: T1, human PDE4D (Homo sapiens, UniProt Q08499); assay: Measurement of PDE4D activity and determination of IC50 (scintillation bead assay, 3H-cAMP); type: biochemical; conditions: PDE4D inhibitor
T1 construct: The cloning of catalytic domains of human PDE4D as well as the expression and purification of the PDE catalytic domains; made in house
Protocol: The half maximal inhibitory concentration (IC50) is a measure of the effectiveness of a compound in inhibiting biological or biochemical function. Concentration-response plots are used to determine the effects of an inhibitor on an enzymatic reaction.
Measurement of phosphodiesterase activity takes advantage of the selective binding of 5-AMP or 5-GMP (and not cAMP or cGMP) to yttrium silicate beads with embedded scintillant. 0.1-1 nM PDE was incubated with 50 nM 3H-cAMP or 70 nM 3H-cGMP (Amersham, 5-60 Ci/mmol) in 50 mM Tris (pH 7.5), 8.3 mM MgCl2, 1.7 mM EGTA, and 0.01% BSA at 30 C for 30 min in 384-well assay plates. The assay was terminated by adding one-third volume of 5 mg/ml yttrium silicate beads in 18 mM ZnAcetate/ZnSO4 solution (3:1). A minimum of 30 min after mixing and centrifuging the reaction, hydrolysis was quantified by reading in a scintillation counter (Trilux, […] Wallac).

FRK = biological target: T2, FRK (Homo sapiens, UniProt P42685); assay: Binding affinity (Kd), KinomeScan kinase binding assay; conditions: FRK inhibitor
T2 construct: either the full length protein or with a kinase construct that spans the catalytic domain
Description: The assay can be performed with either the full length protein or with a kinase construct that spans the catalytic domain.

[1] = tested on: rats with peripheral mononeuropathy induced by loose ligation of the sciatic nerve; conditions: background statement; cited from earlier work
[2] = tested on: rats with inflammatory pain induced by injection of an adjuvant (CFA); conditions: background statement on the positive control; cited from earlier work

T1 sequence (Q08499 386-715 limits assumed): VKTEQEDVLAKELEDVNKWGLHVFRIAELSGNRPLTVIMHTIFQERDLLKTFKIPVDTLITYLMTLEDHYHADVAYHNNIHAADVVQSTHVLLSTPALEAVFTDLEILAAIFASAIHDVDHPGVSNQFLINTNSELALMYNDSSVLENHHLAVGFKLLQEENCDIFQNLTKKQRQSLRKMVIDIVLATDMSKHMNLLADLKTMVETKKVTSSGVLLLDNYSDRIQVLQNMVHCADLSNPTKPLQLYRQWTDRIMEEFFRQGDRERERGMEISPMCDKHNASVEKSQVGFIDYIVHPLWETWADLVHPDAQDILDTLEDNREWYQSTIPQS
T2 sequence (P42685 whole entry, the tested form may be a part): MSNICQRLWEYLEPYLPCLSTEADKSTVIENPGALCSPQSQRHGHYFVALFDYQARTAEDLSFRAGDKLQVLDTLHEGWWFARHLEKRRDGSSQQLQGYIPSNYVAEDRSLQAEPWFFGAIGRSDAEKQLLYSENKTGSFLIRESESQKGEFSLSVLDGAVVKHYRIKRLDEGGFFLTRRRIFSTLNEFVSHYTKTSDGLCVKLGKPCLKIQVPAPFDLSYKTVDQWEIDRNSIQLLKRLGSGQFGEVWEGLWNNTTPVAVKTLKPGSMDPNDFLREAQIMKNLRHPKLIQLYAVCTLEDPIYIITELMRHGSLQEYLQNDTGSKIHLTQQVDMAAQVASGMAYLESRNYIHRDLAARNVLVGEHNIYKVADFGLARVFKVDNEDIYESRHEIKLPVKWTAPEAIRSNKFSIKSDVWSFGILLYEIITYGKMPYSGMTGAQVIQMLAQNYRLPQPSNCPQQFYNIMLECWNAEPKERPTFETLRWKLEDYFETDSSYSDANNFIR

| Compound | IC50 (human PDE4D) [µM] | also measured |
| --- | --- | --- |
| COc1ccc([C@H](Cc2ccncc2)c2ccccc2)cc1OC1CCCC1 [CDP-840, 4-[(2R)-2-[3-(Cyclopentyloxy)-4-methoxyphenyl]-2-phenylethyl]-pyridine hydrochloride] | 0.0021 |  |
| CCCOc1cc([C@]2(C)CNC(=O)O2)ccc1OC [Daxalipram] | 1.1 |  |
| COc1ccc(/C(C)=N/OC(N)=O)cc1OC1CCCC1 [Filaminast] | 1 |  |
| Cc1c[n+]([O-])ccc1CC(c1ccc(C(O)(C(F)(F)F)C(F)(F)F)cc1)c1ccc(OC(F)F)c(OC(F)F)c1 [L-826,141, 4-[2-[3,4-Bis(difluoromethoxy)phenyl]-2-[4-[2,2,2-trifluoro-1-hydroxy-1-(trifluoro-methyl)ethyl]phenyl]ethyl]-3-methylpyridine N-oxide] | 0.0024 |  |
| CCOc1cc2ncc(C#N)c(Nc3ccc(F)c(Cl)c3)c2cc1NC(=O)/C=C/CN(C)C [Pelitinib] |  | Kd (FRK): 0.19 µM |
| CC(C)C[C@H](CN)CC(=O)O [Pregabalin] |  | ameliorating symptoms of pain in the CCl model [1]: effective at ameliorating symptoms of pain |
| O=C(Nc1c(Cl)c[n+]([O-])cc1Cl)c1ccc(OC(F)F)c2oc3ccncc3c12 [Revamilast] | 0.0027 |  |
| O=C(Nc1c(Cl)cncc1Cl)C(=O)c1cn(Cc2ccc(F)cc2)c2ncccc12 [Ronomilast] | 0.0035 |  |
| CCOc1ccc(-c2nc(-c3cccc(C(=O)O)n3)cs2)cc1OCC [Tetomilast, 6-[2-(3,4-diethoxyphenyl)-1,3-thiazol-4-yl]pyridine-2-carboxylic acid] | 0.07 |  |
| CCC1C(C)=NN=C(c2ccc(OC)c(OC)c2)c2cc(OC)c(OC)cc21 (centres unmarked) [Tofisopam, 1-(3,4-dimethoxyphenyl)-5-ethyl-7,8-dimethoxy-4-methyl-5H-2,3-benzodiazepine] | 0.9 |  |
| CCNc1ncn(Cc2ccc(OC)c(OC3CCCC3)c2)c2nc(C(C)C)nc1-2 [V11294, -[(3-cyclopentyloxy-4-methoxyphenyl)methyl]-N-ethyl-8-propan-2-ylpurin-6-amine:] | 0.2 |  |
| COc1ccc2c(c1)c(CC(=O)O)c(C)n2C(=O)c1ccc(Cl)cc1 [indomethacin] |  | efficacy in the CFA model [2]: demonstrated efficacy |
| CS(=O)(=O)Nc1ccc2oc3c(OC(F)F)ccc(C(=O)Nc4c(Cl)cncc4Cl)c3c2c1 [oglemilast] | 0.166 |  |
| Tolafentrine | 0.03 |  |
